Measurements taken from US8541460B2, “PDK-1/Akt signaling inhibitors” (The Ohio State University, priority 2003, dated 2013).

How the values were obtained:
PC-3 cells = assay: Apoptosis analysis (DNA fragmentation ELISA, PARP cleavage); format: cell-based, human; settings: 1% FBS-containing medium
Method: Apoptosis analysis Two methods were used to assess drug-induced apoptotic cell death: detection of DNA fragmentation by the Cell Death Detection ELISA kit (Roche Diagnostics. Mannheim, Germany) and Western blot analysis of poly-(ADP-ribose)polymerase (PARP) cleavage. […] In brief, 4×10^5 PC-3 cells were cultured in a T-25 flask for 24 h before treatment. Cells were treated with the DMSO vehicle or the test agent at the indicated concentrations for 6-24 h, collected, and cell lysates equivalent to 2×10^3 PC-3 cells were used in the ELISA. For the PARP cleavage assay, drug-treated cells were collected 4-8 h post-treatment, washed with ice-cold PBS, and resuspended in lysis buffer containing 20 mM Tris-HCl, pH 8, 137 mM NaCl, 1 mM CaCl2, 10% glycerol, 1% Nonidet P-40, 0.5% deoxycholate, 0.1% SDS, 100 μM 4-(2-aminoethyl)benzenesulfonyl fluoride, leupeptin at 10 μg/mL, and aprotinin at 10 μg/mL. Soluble cell lysates were collected after centrifugation at 10,000 g for 5 min. Equivalent amounts of proteins (60-100 μg) from each lysate were resolved in 8% SDS-polyacrylamide gels. Bands were transferred to nitrocellulose membranes, and analyzed by immunoblotting with anti-PARP antibody.

LOX IMVI = assay: NCI DTP cell line screen (SRB), Melanoma; format: cell-based
Method: (§1) Screening of compounds 70 and 71 against several cancer cell lines The human tumor cell lines of the cancer screening panel are grown in RPMI 1640 medium containing 5% fetal bovine serum and 2 mM L-glutamine. For a typical screening experiment, cells are inoculated into 96 well microtiter plates in 100 μL at plating densities ranging from 5,000 to 40,000 cells/well depending on the doubling time of individual cell lines. After cell inoculation, the microtiter plates are incubated at 37° C., 5% CO2, 95% air and 100% relative humidity for 24 h prior to addition of experimental drugs.
(§2) After 24 h, two plates of each cell line are fixed in situ with TCA, to represent a measurement of the cell population for each cell line at the time of drug addition (Tz). Experimental drugs are solubilized in dimethyl sulfoxide at 400-fold the desired final maximum test concentration and stored frozen prior to use. At the time of drug addition, an aliquot of frozen concentrate is thawed and diluted to twice the desired final maximum test concentration with complete medium containing 50 μg/ml gentamicin. Additional four, 10-fold or ½ log serial dilutions are made to provide a total of five drug concentrations plus control. Aliquots of 100 μl of these different drug dilutions are added to the appropriate microtiter wells already containing 100 μl of medium, resulting in the required final drug concentrations.
(§3) Following drug addition, the plates are incubated for an additional 48 h at 37° C., 5% CO2, 95% air, and 100% relative humidity. For adherent cells, the assay is terminated by the addition of cold TCA. Cells are fixed in situ by the gentle addition of 50 μl of cold 50% (w/v) TCA (final concentration, 10% TCA) and incubated for 60 minutes at 4° C. The supernatant is discarded, and the plates are washed five times with tap water and air dried. Sulforhodamine B (SRB) solution (100 μl) at 0.4% (w/v) in 1% acetic acid is added to each well, and plates are incubated for 10 minutes at room temperature. After staining, unbound dye is removed by washing five times with 1% acetic acid and the plates are air dried. Bound stain is subsequently solubilized with 10 mM trizma base, and the absorbance is read on an automated plate reader at a wavelength of 515 nm. For suspension cells, the methodology is the same except that the assay is terminated by fixing settled cells at the bottom of the wells by gently adding 50 μl of 80% TCA (final concentration, 16% TCA). Using the seven absorbance measurements [time zero, (Tz), control growth, (C), and test growth in the presence of drug at the five concentration levels (Ti)], the percentage growth is calculated at each of the drug concentrations levels. Percentage growth inhibition is calculated as: [(Ti−Tz)/(C−Tz)]×100 for concentrations for which Ti>/=Tz [(Ti−Tz)/Tz]×100 for concentrations for which Ti<Tz
(§4) Three dose response parameters are calculated for each experimental agent. […] The drug concentration resulting in total growth inhibition (TGI) is calculated from Ti=Tz. […] Values are calculated for each of these three parameters if the level of activity is reached; however, if the effect is not reached or is exceeded, the value for that parameter is expressed as greater or less than the maximum or minimum concentration tested.
(§5) The methods described were used to test compounds 70 and 71 on a panel of sixty cell lines under a screening service provided by the Developmental Therapeutics Program at the National Institutes of Health. Shown in FIG. 1C are 1, RPMI-8226 leukemia cells; 2; NCI-H322M non-small cell lung cancer cells; 3, HT29 colon cancer cells; 4, U251 CNS cancer cells; 5, SK-MEL-28 melanoma cancer cells; 6, SK-OV-3 ovarian cancer cells; 7, RXF 393 renal cancer cells; 8, PC-3 prostate cancer cells; 9, MDA-MB-231 breast cancer cells.

M14 = assay: NCI DTP cell line screen (SRB), Melanoma; format: cell-based
Method: as §1, §2, §3, §4, §5

SK-MEL-28 = assay: NCI DTP cell line screen (SRB), Melanoma; format: cell-based
Method: as §1, §2, §3, §4, §5

UACC-62 = assay: NCI DTP cell line screen (SRB), Melanoma; format: cell-based
[1] = read-out: LC50 (the source's name)

Structure (SMILES): N=C(N)Nc1ccc(-n2nc(C(F)(F)F)cc2-c2ccc3c(ccc4ccccc43)c2)cc1 [Compound 71, 4-[5-(2-Phenanthrenyl)-3-(trifluoromethyl)-1H-pyrazol-1-yl]-phenyl-guanidine]
- apoptotic death in PC-3 cells (DNA fragmentation and PARP cleavage) (PC-3 cells): induced apoptotic death in PC-3 cells in 1% FBS-containing medium in a dose-dependent manner
- GI50 (LOX IMVI): 1340 nM
- TGI (LOX IMVI): 2.65E−06
- Mean Optical Densities (LOX IMVI; Log10 Concentration −4.0): 0.165
- Percent Growth (LOX IMVI; Log10 Concentration −4.0): −53%
- Mean Optical Densities (LOX IMVI; Log10 Concentration −5.0): 0.008
- Percent Growth (LOX IMVI; Log10 Concentration −5.0): −98%
- Mean Optical Densities (LOX IMVI; Log10 Concentration −6.0): 0.935
- Percent Growth (LOX IMVI; Log10 Concentration −6.0): 72%
- Mean Optical Densities (LOX IMVI; Log10 Concentration −7.0): 1.033
- Percent Growth (LOX IMVI; Log10 Concentration −7.0): 84%
- Mean Optical Densities (LOX IMVI; Log10 Concentration −8.0): 0.948
- Percent Growth (LOX IMVI; Log10 Concentration −8.0): 73%
- CC50 (LOX IMVI; [1]): 5220 nM
- GI50 (M14): 1480 nM
- TGI (M14): 2.80E−06
- Mean Optical Densities (M14; Log10 Concentration −4.0): 0.210
- Percent Growth (M14; Log10 Concentration −4.0): −33%
- Mean Optical Densities (M14; Log10 Concentration −5.0): −0.004
- Percent Growth (M14; Log10 Concentration −5.0): −100%
- Mean Optical Densities (M14; Log10 Concentration −6.0): 0.816
- Percent Growth (M14; Log10 Concentration −6.0): 81%
- Mean Optical Densities (M14; Log10 Concentration −7.0): 0.823
- Percent Growth (M14; Log10 Concentration −7.0): 82%
- Mean Optical Densities (M14; Log10 Concentration −8.0): 0.772
- Percent Growth (M14; Log10 Concentration −8.0): 74%
- GI50 (SK-MEL-28): 1560 nM
- TGI (SK-MEL-28): 2.89E−06
- Mean Optical Densities (SK-MEL-28; Log10 Concentration −4.0): 0.248
- Percent Growth (SK-MEL-28; Log10 Concentration −4.0): −53%
- Mean Optical Densities (SK-MEL-28; Log10 Concentration −5.0): −0.002
- Percent Growth (SK-MEL-28; Log10 Concentration −5.0): −100%
- Mean Optical Densities (SK-MEL-28; Log10 Concentration −6.0): 1.367
- Percent Growth (SK-MEL-28; Log10 Concentration −6.0): 86%
- Mean Optical Densities (SK-MEL-28; Log10 Concentration −7.0): 1.408
- Percent Growth (SK-MEL-28; Log10 Concentration −7.0): 90%
- Mean Optical Densities (SK-MEL-28; Log10 Concentration −8.0): 1.439
- Percent Growth (SK-MEL-28; Log10 Concentration −8.0): 93%
- GI50 (UACC-62): 1440 nM
- TGI (UACC-62): 2.74E−06
- Mean Optical Densities (UACC-62; Log10 Concentration −4.0): 0.272
- Percent Growth (UACC-62; Log10 Concentration −4.0): −60%
- Mean Optical Densities (UACC-62; Log10 Concentration −5.0): −0.041
- Percent Growth (UACC-62; Log10 Concentration −5.0): −100%
- Mean Optical Densities (UACC-62; Log10 Concentration −6.0): 1.301
- Percent Growth (UACC-62; Log10 Concentration −6.0): 78%
- Mean Optical Densities (UACC-62; Log10 Concentration −7.0): 1.338
- Percent Growth (UACC-62; Log10 Concentration −7.0): 83%
- Mean Optical Densities (UACC-62; Log10 Concentration −8.0): 1.323
- Percent Growth (UACC-62; Log10 Concentration −8.0): 81%
- CC50 (UACC-62; [1]): 5240 nM

Structure (SMILES): NCC(=O)Nc1ccc(-n2nc(C(F)(F)F)cc2-c2ccc3c(ccc4ccccc43)c2)cc1 [Compound 70, 2-Amino-N-{4-[5-(2-phenanthrenyl)-3-(trifluoromethyl)-1H-pyrazol-1-yl]-phenyl}-acetamide]
- apoptotic death in PC-3 cells (DNA fragmentation and PARP cleavage) (PC-3 cells): induced apoptotic death in PC-3 cells in 1% FBS-containing medium in a dose-dependent manner
- TGI (LOX IMVI): 3.07E−06
- Percent Growth (LOX IMVI; Log10 Concentration −5.0): −50%
- Percent Growth (LOX IMVI; Log10 Concentration −6.0): 48%
- Percent Growth (LOX IMVI; Log10 Concentration −7.0): 76%
- Percent Growth (LOX IMVI; Log10 Concentration −8.0): 105%
- TGI (M14): 5.37E−06
- Percent Growth (M14; Log10 Concentration −4.0): −19%
- Percent Growth (M14; Log10 Concentration −5.0): −33%
- Percent Growth (M14; Log10 Concentration −6.0): 90%
- Percent Growth (M14; Log10 Concentration −7.0): 98%
- Percent Growth (M14; Log10 Concentration −8.0): 98%
- TGI (SK-MEL-28): 2.64E−06
- Percent Growth (SK-MEL-28; Log10 Concentration −4.0): −59%
- Percent Growth (SK-MEL-28; Log10 Concentration −5.0): −87%
- Percent Growth (SK-MEL-28; Log10 Concentration −6.0): 63%
- Percent Growth (SK-MEL-28; Log10 Concentration −7.0): 83%
- Percent Growth (SK-MEL-28; Log10 Concentration −8.0): 94%
- TGI (UACC-62): 3.15E−06
- Percent Growth (UACC-62; Log10 Concentration −4.0): −46%
- Percent Growth (UACC-62; Log10 Concentration −5.0): −80%
- Percent Growth (UACC-62; Log10 Concentration −6.0): 79%
- Percent Growth (UACC-62; Log10 Concentration −7.0): 94%
- Percent Growth (UACC-62; Log10 Concentration −8.0): 105%
